Results taken from ChEMBL document CHEMBL4354836, “Heterotrimeric G Proteins as Therapeutic Targets in Drug Discovery” (J Med Chem, 2020).
Bridge positions count the residues as written; N and C are the ends. Square brackets hold non-standard residues; d marks the D form. Peptide text beside a SMILES is read from it. Leu(3R-O(AcLeu(3R-OH))) = CC(=O)N[C@H](C(=O)O[C@H](C(C)C)[C@H](N)C(=O)O)[C@H](O)C(C)C; NMeT = CN[C@H](C(=O)O)[C@@H](C)O; dPhLac = O=C(O)[C@H](O)Cc1ccccc1; NMeA = CN[C@@H](C)C(=O)O; NMeDha = C=C(NC)C(=O)O

Assays:
[1] = Inhibition of recombinant G-alpha subunit (unknown origin) assessed as inhibition of GDP release; set-up: species or system Homo sapiens
[2] = target: Guanine nucleotide-binding protein G(I)/G(S)/G(T) subunit beta-1/gamma-2 (Homo sapiens, UniProt P59768+P62873); assay: Inhibition of G-protein beta1gamma2 (unknown origin) by flow cytometry; format: protein-complex assay
Sequence of Guanine nucleotide-binding protein G(I)/G(S)/G(T) subunit beta-1/gamma-2 (P59768 2-71 limits assumed): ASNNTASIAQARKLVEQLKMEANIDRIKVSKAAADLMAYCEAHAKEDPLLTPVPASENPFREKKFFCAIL
Sequence of Guanine nucleotide-binding protein G(I)/G(S)/G(T) subunit beta-1/gamma-2 (P62873 2-340 limits assumed): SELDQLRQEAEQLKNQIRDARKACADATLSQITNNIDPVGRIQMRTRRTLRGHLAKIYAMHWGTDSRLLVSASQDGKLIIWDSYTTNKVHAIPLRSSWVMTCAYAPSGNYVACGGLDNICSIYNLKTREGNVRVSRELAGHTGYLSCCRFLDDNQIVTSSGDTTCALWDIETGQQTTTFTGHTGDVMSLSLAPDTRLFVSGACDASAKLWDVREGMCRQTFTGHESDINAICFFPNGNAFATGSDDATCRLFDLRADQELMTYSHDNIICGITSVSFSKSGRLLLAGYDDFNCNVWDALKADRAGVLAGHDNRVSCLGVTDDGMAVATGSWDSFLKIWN

[3] = target: T1, GNAQ/GNA11 (Homo sapiens, UniProt P50148+P29992); assay: Inhibition of G-alphaq/11 in human platelet rich plasma assessed as inhibition of ADP-mediated platelet aggregation
T1 sequence (P50148 whole entry): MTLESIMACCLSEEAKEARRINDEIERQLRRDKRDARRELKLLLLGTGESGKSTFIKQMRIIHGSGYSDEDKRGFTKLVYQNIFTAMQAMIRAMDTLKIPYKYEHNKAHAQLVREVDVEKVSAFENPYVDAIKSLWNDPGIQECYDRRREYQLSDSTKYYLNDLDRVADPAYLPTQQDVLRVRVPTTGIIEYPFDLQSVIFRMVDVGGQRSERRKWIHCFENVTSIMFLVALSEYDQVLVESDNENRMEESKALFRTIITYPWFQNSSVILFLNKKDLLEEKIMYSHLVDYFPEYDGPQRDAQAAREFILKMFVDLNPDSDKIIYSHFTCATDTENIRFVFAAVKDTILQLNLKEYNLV
T1 sequence (P29992 whole entry): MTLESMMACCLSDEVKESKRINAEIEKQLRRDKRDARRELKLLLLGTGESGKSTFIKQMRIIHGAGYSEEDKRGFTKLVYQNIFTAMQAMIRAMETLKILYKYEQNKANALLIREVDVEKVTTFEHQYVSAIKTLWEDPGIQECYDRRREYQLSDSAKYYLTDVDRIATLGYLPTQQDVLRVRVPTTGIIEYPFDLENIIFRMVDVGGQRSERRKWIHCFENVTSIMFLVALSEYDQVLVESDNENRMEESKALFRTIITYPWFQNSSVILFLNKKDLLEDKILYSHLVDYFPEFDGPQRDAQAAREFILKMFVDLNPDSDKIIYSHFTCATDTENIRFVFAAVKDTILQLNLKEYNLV

[4] = target: T1, GNAQ/GNA11; assay: Inhibition of G-alphaq/11 in human platelet rich plasma assessed as inhibition of ADP-mediated calcium ion mobilization

Structure (SMILES) | IC50 [2] [nM] | other results
Cc1ccc(C(=O)Nc2ccc(S(=O)(=O)O)c3cc(S(=O)(=O)O)cc(S(=O)(=O)O)c23)cc1NC(=O)c1cccc(NC(=O)Nc2cccc(C(=O)Nc3cc(C(=O)Nc4ccc(S(=O)(=O)O)c5cc(S(=O)(=O)O)cc(S(=O)(=O)O)c45)ccc3C)c2)c1 [SURAMIN] |  | IC50 [1]: 240 nM
O=C1OC2(c3ccccc31)c1ccc(O)c(O)c1Oc1c2ccc(O)c1O | 200 | 
O=C(O)C1CCCCC1c1c2ccc(=O)c(O)c-2oc2c(O)c(O)ccc12 (configuration not stated) | 200 | 
C=C1C(=O)N[C@@H](C)C(=O)N(C)[C@@H](C)C(=O)N[C@@H]([C@H](OC(=O)[C@@H](NC(C)=O)[C@H](O)C(C)C)C(C)C)C(=O)N(C)[C@@H]([C@@H](C)OC)C(=O)O[C@H](C)[C@H](NC(C)=O)C(=O)O[C@H](Cc2ccccc2)C(=O)N1C (Ac-T[dPhLac][NMeDha]A[NMeA][Leu(3R-O(AcLeu(3R-OH)))][NMeT](Me); ester 1-C) |  | IC50 [3]: 100 to 1000 nM; IC50 [4]: 100 to 1000 nM

Continued, in another order:

IC50 [2] [nM] | Structure (SMILES) | other results
250 | O=C(O)C1CC23C(Cl)C(Cl)=C(Cl)C(Cl)C2(CC1c1c2ccc(=O)c(O)c-2oc2c(O)c(O)ccc12)C3(Cl)Cl (configuration not stated) | 
> 300000 | O=C(O)C1CCCCC1c1c2ccc(=O)cc-2oc2cc(O)ccc12 (configuration not stated) | 
